Assay results published in ChEMBL document CHEMBL4507299, “Data for DCP probe PF-04554878” (2021).

Columns and labels:
[1] = biological target: 5-hydroxytryptamine receptor 2B (Homo sapiens) (UniProt P41595); conditions: Compound concentration 10.0 uM
[2] = biological target: Dual specificity mitogen-activated protein kinase kinase 2 (Homo sapiens) (UniProt P36507)
[3] = biological target: Ephrin type-A receptor 4 (Homo sapiens) (UniProt P54764)
[4] = test system: Receptor-type tyrosine-protein kinase FLT3 (Homo sapiens), P36888 [K663Q]
[5] = biological target: Platelet-derived growth factor receptor alpha (Homo sapiens) (UniProt P16234)
[6] = biological target: Tyrosine-protein kinase BTK (Homo sapiens) (UniProt Q06187)
[7] = biological target: Ribosomal protein S6 kinase alpha-1 (Homo sapiens) (UniProt Q15418)
[8] = biological target: Serine/threonine-protein kinase BRSK2 (Homo sapiens) (UniProt Q8IWQ3)
Serine/threonine-protein kinase BRSK2 (Homo sapiens), sequence (Q8IWQ3 whole entry): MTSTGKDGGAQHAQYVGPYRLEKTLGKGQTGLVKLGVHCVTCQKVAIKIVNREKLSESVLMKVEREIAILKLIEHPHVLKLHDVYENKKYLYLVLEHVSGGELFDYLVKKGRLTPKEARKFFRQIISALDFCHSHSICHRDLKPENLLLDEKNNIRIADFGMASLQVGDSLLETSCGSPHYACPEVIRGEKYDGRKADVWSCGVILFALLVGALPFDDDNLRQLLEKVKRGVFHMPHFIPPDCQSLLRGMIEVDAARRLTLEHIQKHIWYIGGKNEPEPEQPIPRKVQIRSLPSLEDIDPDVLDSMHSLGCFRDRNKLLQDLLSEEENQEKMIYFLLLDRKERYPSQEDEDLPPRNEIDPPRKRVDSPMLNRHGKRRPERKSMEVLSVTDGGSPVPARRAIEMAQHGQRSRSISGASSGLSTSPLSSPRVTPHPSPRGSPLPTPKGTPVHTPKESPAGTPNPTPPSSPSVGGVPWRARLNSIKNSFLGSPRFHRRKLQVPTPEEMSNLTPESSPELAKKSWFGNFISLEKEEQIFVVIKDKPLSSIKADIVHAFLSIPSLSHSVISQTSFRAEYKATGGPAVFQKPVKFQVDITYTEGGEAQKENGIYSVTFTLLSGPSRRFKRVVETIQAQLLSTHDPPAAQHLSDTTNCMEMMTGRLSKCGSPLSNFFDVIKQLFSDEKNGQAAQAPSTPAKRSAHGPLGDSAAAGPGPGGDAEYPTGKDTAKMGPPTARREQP

[9] = biological target: Fibroblast growth factor receptor 1 (Homo sapiens) (UniProt P11362)
[10] = test system: Mast/stem cell growth factor receptor Kit (Homo sapiens), P10721 [L576P]
[11] = biological target: Activin receptor type-2B (Homo sapiens) (UniProt Q13705)
Activin receptor type-2B (Homo sapiens), sequence (Q13705 whole entry): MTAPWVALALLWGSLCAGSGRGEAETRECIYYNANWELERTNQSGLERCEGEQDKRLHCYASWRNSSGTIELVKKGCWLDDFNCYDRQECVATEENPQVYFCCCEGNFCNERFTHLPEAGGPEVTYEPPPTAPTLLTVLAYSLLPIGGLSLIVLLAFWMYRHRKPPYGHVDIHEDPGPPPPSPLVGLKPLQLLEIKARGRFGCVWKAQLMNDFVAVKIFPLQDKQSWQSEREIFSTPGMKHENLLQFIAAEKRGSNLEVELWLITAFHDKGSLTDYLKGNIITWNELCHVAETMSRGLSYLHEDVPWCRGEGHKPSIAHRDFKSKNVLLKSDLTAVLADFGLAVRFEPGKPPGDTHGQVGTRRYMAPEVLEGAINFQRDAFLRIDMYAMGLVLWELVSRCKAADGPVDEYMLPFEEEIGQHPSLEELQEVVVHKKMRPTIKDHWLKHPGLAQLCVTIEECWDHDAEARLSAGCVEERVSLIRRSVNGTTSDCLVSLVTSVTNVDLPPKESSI

[12] = biological target: Histamine H3 receptor (Homo sapiens) (UniProt Q9Y5N1); conditions: Compound concentration 10.0 uM
[13] = biological target: Cyclin-dependent kinase-like 5 (Homo sapiens) (UniProt O76039)
[14] = biological target: Myosin light chain kinase (Homo sapiens) (UniProt Q32MK0)
[15] = biological target: Activated CDC42 kinase 1 (Homo sapiens) (UniProt Q07912)
[16] = biological target: Cyclin-dependent kinase 3 (Homo sapiens) (UniProt Q00526)
[17] = biological target: Peripheral plasma membrane protein CASK (Homo sapiens) (UniProt O14936)
Peripheral plasma membrane protein CASK (Homo sapiens), sequence (O14936 whole entry): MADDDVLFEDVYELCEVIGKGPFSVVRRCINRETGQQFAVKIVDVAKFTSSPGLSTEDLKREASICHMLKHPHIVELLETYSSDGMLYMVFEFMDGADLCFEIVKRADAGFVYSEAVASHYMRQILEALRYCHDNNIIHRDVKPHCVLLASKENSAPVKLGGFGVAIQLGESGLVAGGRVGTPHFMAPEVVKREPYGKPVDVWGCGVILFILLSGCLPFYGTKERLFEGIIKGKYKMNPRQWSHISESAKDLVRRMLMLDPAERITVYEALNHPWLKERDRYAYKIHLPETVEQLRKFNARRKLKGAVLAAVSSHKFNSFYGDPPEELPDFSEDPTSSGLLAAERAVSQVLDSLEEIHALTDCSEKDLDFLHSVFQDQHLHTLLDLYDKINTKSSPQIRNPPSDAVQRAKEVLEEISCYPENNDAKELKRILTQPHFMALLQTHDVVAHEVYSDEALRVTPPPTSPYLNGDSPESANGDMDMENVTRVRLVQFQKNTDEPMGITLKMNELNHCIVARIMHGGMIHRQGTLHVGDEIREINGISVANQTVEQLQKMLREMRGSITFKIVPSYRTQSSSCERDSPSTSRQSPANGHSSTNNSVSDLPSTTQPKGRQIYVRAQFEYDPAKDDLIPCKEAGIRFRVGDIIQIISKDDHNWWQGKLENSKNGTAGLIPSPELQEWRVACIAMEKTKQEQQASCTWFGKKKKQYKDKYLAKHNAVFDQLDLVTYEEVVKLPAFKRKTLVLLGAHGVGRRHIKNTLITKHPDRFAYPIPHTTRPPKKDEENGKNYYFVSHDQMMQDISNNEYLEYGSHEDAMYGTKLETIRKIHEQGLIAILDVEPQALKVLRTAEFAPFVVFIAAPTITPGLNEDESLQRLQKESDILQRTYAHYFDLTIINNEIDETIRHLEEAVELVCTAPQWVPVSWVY

[18] = biological target: Transient receptor potential cation channel subfamily M member 6 (Homo sapiens) (UniProt Q9BX84)
[19] = biological target: Protein kinase C delta type (Homo sapiens) (UniProt Q05655)
[20] = biological target: Histamine H1 receptor (Homo sapiens) (UniProt P35367); conditions: Compound concentration 10.0 uM
[21] = test system: Phosphatidylinositol 4,5-bisphosphate 3-kinase catalytic subunit alpha isoform (Homo sapiens), P42336 [Q546K]
[22] = biological target: Phosphatidylinositol 5-phosphate 4-kinase type-2 beta (Homo sapiens) (UniProt P78356)
[23] = biological target: Mitogen-activated protein kinase 9 (Homo sapiens) (UniProt P45984)
[24] = biological target: Serine/threonine-protein kinase 38 (Homo sapiens) (UniProt Q15208)
Serine/threonine-protein kinase 38 (Homo sapiens), sequence (Q15208 2-465 limits assumed): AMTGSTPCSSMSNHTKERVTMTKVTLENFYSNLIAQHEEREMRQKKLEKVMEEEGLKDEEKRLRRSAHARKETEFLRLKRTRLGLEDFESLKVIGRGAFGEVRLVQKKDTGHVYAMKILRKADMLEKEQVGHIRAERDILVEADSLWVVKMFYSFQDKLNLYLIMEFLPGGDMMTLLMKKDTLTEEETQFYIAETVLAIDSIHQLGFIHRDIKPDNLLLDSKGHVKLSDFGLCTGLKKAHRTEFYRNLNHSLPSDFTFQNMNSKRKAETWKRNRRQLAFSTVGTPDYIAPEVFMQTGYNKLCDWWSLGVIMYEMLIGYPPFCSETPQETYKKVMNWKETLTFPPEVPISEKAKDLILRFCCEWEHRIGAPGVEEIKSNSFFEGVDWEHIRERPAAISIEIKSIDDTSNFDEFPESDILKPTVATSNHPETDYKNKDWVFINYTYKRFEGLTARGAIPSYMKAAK

Rattus norvegicus = species: Rattus norvegicus; conditions: Compound concentration 10.0 uM
[25] = biological target: Casein kinase I isoform gamma-2 (Homo sapiens) (UniProt P78368)
[26] = test system: Tyrosine-protein kinase ABL1 (Homo sapiens), P00519 [F317L]
[27] = biological target: Ephrin type-A receptor 3 (Homo sapiens) (UniProt P29320)
[28] = test system: Mast/stem cell growth factor receptor Kit (Homo sapiens), P10721 [A829P]
[29] = biological target: Interferon-induced, double-stranded RNA-activated protein kinase (Homo sapiens) (UniProt P19525)
[30] = biological target: TGF-beta receptor type-1 (Homo sapiens) (UniProt P36897)
TGF-beta receptor type-1 (Homo sapiens), sequence (P36897 whole entry): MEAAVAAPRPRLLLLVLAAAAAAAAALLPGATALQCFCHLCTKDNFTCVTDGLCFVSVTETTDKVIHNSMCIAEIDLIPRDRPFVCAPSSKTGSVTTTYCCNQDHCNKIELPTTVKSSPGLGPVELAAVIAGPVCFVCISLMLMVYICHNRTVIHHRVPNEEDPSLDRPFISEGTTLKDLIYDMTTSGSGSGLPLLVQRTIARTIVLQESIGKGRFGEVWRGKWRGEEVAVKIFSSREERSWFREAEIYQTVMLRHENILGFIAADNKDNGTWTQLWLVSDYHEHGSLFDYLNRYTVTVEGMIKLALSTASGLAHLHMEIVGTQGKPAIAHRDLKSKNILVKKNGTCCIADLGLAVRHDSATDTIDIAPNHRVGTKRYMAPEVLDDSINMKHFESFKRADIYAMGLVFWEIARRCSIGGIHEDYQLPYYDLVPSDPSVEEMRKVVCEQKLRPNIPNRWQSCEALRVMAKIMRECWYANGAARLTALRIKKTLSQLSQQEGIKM

[31] = biological target: Serine/threonine-protein kinase VRK2 (Homo sapiens) (UniProt Q86Y07)
[32] = biological target: Serine/threonine-protein kinase BRSK1 (Homo sapiens) (UniProt Q8TDC3)
[33] = biological target: Fibroblast growth factor receptor 3 (Homo sapiens) (UniProt P22607)
[34] = biological target: T1, Inhibitor of nuclear factor kappa-B kinase subunit epsilon (Homo sapiens) (UniProt Q14164)
T1 sequence (whole entry): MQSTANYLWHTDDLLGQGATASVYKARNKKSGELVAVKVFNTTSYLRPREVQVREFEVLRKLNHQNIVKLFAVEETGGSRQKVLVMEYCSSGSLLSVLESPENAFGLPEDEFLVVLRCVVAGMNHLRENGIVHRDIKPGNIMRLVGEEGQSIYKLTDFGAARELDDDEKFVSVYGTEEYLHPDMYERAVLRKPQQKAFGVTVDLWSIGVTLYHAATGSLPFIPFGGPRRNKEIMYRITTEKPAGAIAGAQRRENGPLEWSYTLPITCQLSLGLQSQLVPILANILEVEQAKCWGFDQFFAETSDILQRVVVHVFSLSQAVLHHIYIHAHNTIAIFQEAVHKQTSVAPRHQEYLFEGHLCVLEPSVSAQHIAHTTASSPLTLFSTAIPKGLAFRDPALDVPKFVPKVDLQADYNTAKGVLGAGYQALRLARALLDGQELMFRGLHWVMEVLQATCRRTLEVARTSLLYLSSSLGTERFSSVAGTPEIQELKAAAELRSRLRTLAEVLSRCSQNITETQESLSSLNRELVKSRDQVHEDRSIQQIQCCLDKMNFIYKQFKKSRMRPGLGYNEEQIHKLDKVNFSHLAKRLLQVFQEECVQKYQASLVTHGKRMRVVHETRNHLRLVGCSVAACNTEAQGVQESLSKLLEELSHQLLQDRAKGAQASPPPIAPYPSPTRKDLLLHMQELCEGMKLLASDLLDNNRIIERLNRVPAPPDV

[35] = biological target: Serine/threonine-protein kinase Nek10 (Homo sapiens) (UniProt Q6ZWH5)
Serine/threonine-protein kinase Nek10 (Homo sapiens), sequence (Q6ZWH5 whole entry): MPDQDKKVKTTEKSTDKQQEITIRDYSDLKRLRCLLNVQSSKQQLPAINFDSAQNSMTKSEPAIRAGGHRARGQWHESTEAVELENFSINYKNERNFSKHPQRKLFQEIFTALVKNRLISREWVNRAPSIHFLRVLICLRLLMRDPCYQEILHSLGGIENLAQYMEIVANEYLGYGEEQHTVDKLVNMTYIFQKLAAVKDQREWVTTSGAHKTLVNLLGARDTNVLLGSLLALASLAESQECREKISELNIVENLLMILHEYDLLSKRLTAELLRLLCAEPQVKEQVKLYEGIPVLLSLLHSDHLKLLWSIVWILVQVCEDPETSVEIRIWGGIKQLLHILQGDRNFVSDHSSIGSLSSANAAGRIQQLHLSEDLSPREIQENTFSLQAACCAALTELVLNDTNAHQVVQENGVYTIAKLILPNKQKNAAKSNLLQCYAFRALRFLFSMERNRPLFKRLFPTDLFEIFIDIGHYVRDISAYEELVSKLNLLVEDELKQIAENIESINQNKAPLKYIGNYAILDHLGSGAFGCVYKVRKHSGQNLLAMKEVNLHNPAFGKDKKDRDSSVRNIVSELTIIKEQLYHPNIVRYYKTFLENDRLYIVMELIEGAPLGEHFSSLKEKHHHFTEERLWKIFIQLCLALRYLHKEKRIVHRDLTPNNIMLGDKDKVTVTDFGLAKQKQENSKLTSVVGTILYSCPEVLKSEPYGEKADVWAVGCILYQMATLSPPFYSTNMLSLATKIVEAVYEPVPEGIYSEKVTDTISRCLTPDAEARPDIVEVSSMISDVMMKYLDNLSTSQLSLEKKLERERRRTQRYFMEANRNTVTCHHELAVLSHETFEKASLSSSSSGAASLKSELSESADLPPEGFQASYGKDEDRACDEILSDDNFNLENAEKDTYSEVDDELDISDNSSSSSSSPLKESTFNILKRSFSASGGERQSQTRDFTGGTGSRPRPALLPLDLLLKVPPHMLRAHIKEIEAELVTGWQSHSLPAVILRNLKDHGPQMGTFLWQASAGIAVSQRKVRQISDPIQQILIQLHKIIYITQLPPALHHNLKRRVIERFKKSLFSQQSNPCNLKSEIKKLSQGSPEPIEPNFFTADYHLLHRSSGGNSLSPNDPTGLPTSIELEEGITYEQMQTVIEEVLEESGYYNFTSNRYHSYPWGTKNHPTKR

[36] = Compound concentration 100.0 nM
[37] = Compound concentration 1000.0 nM

5-hydroxytryptamine receptor 2B (Homo sapiens), sequence (P41595 whole entry): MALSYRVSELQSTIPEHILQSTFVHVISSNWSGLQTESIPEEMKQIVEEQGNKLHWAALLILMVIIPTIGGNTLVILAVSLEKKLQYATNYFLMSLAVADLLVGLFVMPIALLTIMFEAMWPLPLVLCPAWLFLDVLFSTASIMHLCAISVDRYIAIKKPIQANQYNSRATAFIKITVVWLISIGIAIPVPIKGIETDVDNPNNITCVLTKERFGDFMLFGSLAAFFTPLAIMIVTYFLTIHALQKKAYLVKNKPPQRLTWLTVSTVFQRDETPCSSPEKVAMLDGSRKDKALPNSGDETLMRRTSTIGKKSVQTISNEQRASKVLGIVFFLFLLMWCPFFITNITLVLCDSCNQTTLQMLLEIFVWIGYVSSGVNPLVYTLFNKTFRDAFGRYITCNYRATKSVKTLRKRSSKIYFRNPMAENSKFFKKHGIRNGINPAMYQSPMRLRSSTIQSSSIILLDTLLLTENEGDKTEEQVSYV

Compound `CNC(=O)c1ccc(Nc2ncc(C(F)(F)F)c(NCc3nccnc3N(C)S(C)(=O)=O)n2)cc1` [DEFACTINIB] has an inhibition [1] of 5.73%, a residual activity [2, 36] of 100% and a residual activity [3, 36] of 99%. For the same compound, the residual activity [4, 36] was 21%, the residual activity [5, 36] was 77% and the residual activity [6, 36] was 83%. For the same compound, the residual activity [7, 36] was 71%, the residual activity [8, 36] was 100% and the residual activity [9, 36] was 89%. The residual activity [10, 36] was 86%, the residual activity [11, 36] was 100% and the inhibition [12] was -7.94%. The residual activity [13, 36] was 100%, the residual activity [14, 36] was 100% and the residual activity [15, 36] was 100%. It also gave a residual activity [16, 36] of 100%, a residual activity [17, 36] of 88% and a residual activity [18, 36] of 98%. The residual activity [19, 36] was 100%, the inhibition [20] was -3.38% and the residual activity [21, 36] was 17%. The residual activity [22, 36] was 91%, the residual activity [23, 36] was 95% and the residual activity [24, 36] was 86%. For the same compound, the inhibition (Rattus norvegicus) was 31.4%, the residual activity [25, 36] was 99% and the residual activity [26, 36] was 100%. It also gave a residual activity [27, 36] of 82%, a residual activity [28, 36] of 85% and a residual activity [29, 36] of 100%. The residual activity [30, 36] was 87%, the residual activity [31, 36] was 85% and the residual activity [32, 36] was 100%. It also gave a residual activity [33, 36] of 78%, a residual activity [34, 36] of 99% and a residual activity [35, 36] of 100%.

With `CN(c1ccnc(CNc2nc(Nc3ccc4c(c3)CC(=O)N4)ncc2C(F)(F)F)n1)S(C)(=O)=O` [PF-00911705] the inhibition [1] was 13.5%, the residual activity [2, 37] was 82% and the residual activity [3, 37] was 90%. The residual activity [4, 37] was 16%, the residual activity [5, 37] was 58% and the residual activity [6, 37] was 63%. The residual activity [7, 37] was 68%, the residual activity [8, 37] was 97% and the residual activity [9, 37] was 82%. It also gave a residual activity [10, 37] of 66%, a residual activity [11, 37] of 73% and an inhibition [12] of 12.9%. The residual activity [13, 37] was 87%, the residual activity [14, 37] was 100% and the residual activity [15, 37] was 86%. The residual activity [16, 37] was 90%, the residual activity [17, 37] was 85% and the residual activity [18, 37] was 86%. The residual activity [19, 37] was 78%, the inhibition [20] was 21.4% and the residual activity [21, 37] was 93%. For the same compound, the residual activity [22, 37] was 4.8%, the residual activity [23, 37] was 79% and the residual activity [24, 37] was 65%. The inhibition (Rattus norvegicus) was 62.1%, the residual activity [25, 37] was 100% and the residual activity [26, 37] was 71%. The residual activity [27, 37] was 72%, the residual activity [28, 37] was 46% and the residual activity [29, 37] was 82%. For the same compound, the residual activity [30, 37] was 44%, the residual activity [31, 37] was 78% and the residual activity [32, 37] was 43%. For the same compound, the residual activity [33, 37] was 71%, the residual activity [34, 37] was 18% and the residual activity [35, 37] was 90%.
